Experimental findings from patent EP1344834A2, “Methods for the toxicity prediction of a compound” (F. HOFFMANN-LA ROCHE AG, priority 2002, dated 2003) are described below.

Like-named read-outs stand apart in the source and are kept apart here.

The subject of data set [1] is expression profile in liver. As to the kind of experiment: Support Vector Machine classification of liver expression profiles. The note with it: compounds not present in the initial training set; expression profiles of individual animals; Figures 8 and 9.
Experimental: Adult male Wistar rats were dosed in vivo and the resulting expression profile in liver was determined. SVMs were built for the discrimination between 3 different classes of hepatotoxicants, non-toxic substances and controls. The training set consisted of 180 gene expression profiles from individual animals treated with direct acting, cholestatic, steatotic, non-toxic compounds and corresponding vehicle-dosed controls. As a first step the chips were rescaled to a median value of 0 and a standard deviation of 1. […] Multi-class classification for a given test chip was then carried out by combining the outputs of all binary. classifiers. A leave-one-out cross validation procedure was applied to assess the quality of the trained machines with respect to the training data. […] By removing all replicates of one compound from the training data, followed by classifying these chips with the resulting decision function, the individual contribution of the given compound for a successful classifier could be examined. RFE was used to investigate the relationship between the number of genes for generating the classifiers, the resulting prediction accuracy, cross-validation errors and the number of used support vectors. The first iteration reduced the gene count to a multiple of 2. In each subsequent iteration the gene count was halved until 32 genes remained. […]
Data set [2] has as its system AH-R. Particulars: rat, in vivo.
Experimental: (§4) Male Wistar rats (generally 5 animals/dose-group) were purchased from BRL (Fullingsdorf, Switzerland) and housed individually. Treated animals were dosed either orally, intraperitoneally, or intravenously with several doses of test compounds (Table 1). The test compounds were categorized according to their toxic manifestation in the rat liver. Control animals received the same volume of vehicle as placebo. Necropsy was performed 6 or 24 hours after a single administration and liver samples from the left medial lobe were placed immediately in RNALater (Ambion, TX, USA) for RNA extraction and gene expression analysis. Samples in RNALater were stored at -20°C until further processing.
(§5) RNA isolation from hepatocytes was typically performed by resuspending approximately 3 Mio. Cells/1.2 mL RNAzol (Tel-Test Inc., TX, USA). […] Total RNA was isolated according to the manufacturer's instruction and quantified by measuring the optical density at 280 nm. The quality of RNA was assessed with gel electrophoresis. […]
(§6) After hybridization and scanning, the expression level of each gene was calculated by subtracting the fluorescence intensity of the mismatch probes from the match signal (=average difference) using the [sequence] […] Gene expression data were further analyzed with an in-house-developed data analysis tool (RACE-A, Hoffmann-La Roche, Basel, Switzerland). […]
Data set [3] deals with CYP2B2. The note with it: rat, in vivo.
Experimental: as §4
(§7) RNA isolation from hepatocytes was typically performed by resuspending approximately 3 Mio. Cells/1.2 mL RNAzol (Tel-Test Inc., TX, USA). […] Total RNA was isolated according to the manufacturer's instruction and quantified by measuring the optical density at 280 nm. The quality of RNA was assessed with gel electrophoresis.
(§8) The regulation of the mRNA levels of several candidate genes (Table 4) was verified with quantitative RT-PCR. […] For each performed RT-PCR reaction, the specificity of the assay was evaluated with dissociation curve software (Applied Biosystems), as well as by assessment of the size of the product using either gel electrophoresis or Agilent Bioanalyzer. […]
For another data set, the system named is PC3 (BTG2). Particulars: rat, in vivo.
Data set [4] deals with CYP2B2. The note with it: rat, in vivo. The source holds these as a separate data set.
Experimental: as §4, §5, §6
Data set [5] deals with marker genes. The note with it: rat, in vivo.
Experimental: as §4, §7, §8
Data set [6] deals with AH-R. Particulars: rat, in vivo. This is another data set of the same source.
Experimental: as §4, §7, §8
In the next data set the test system is Gadd153. As to the kind of experiment: Quantitative RT-PCR of GADD-family genes in liver after in vivo dosing. More on the design: species or system Wistar rats. The note with it: control = 1.0. The method, then:
(§1) The quality of RNA was assessed with gel electrophoresis.
(§2) The induction of these genes correlates with the histopathological findings in a time related fashion: While PEG-3 seems to be an early marker, GADD-45 and […] appear regulated at later time points, when the tissue damage is obvious by conventional endpoints.

In the next data set the test system is PEG3. Described as above. More on the design: species or system Wistar rats. Particulars: control = 1.0. The method, then: as §1, §2
In the next data set the test system is Gadd45. Described as above. Details: species or system Wistar rats. The note with it: control = 1.0. The method, then: as §1, §2
Another data set concerns EGR-1. As to the kind of experiment: Quantitative RT-PCR of EGR-1 in liver after in vivo dosing. More on the design: species or system rats. The note with it: every 12 Hours, sacrificed 3 hours after the last administration, control = 1.0. How it is done: as §1
(§3) Tolcapone (Tasmar) is a human hepatotoxin with no known toxicity in the rat.

The test system of a further data set is EGR1. As to the kind of experiment: Gene expression analysis (GeneChip) of EGR1 after exposure of rats. The format is in vivo. The note with it: high inter-individual variability. How it is done: as §1, §3
For data set [7], the system named is genes from the GADD family. As to the kind of experiment: RT-PCR confirmation of induction of GADD family genes by direct acting compounds. The format is in vivo, Wistar rats. Particulars: rat liver (summary of Table 9). The method, then:
as §1, §2

Data set [8] deals with marker genes. As to the kind of experiment: RT-PCR of marker genes, differentiation of toxic and non-toxic 5-HT6 receptor antagonists (Fig. 10). Particulars: rat liver, some of the selected genes.
Experimental: as §4, §7, §8
The test system of another data set is CYP2B. As to the kind of experiment: Western-blot of liver extracts with antibody specific for CYP2B. In kind it is in vivo, rat. How it is done: In addition, Western blots were performed using specific antibodies against the cytochrome P450 CYP2B family in order to evaluate if the clear induction of messenger RNA also led to an increase in the hepatic protein levels. […] This is due to the time lag between protein and mRNA induction (Fig. 11).

Setting [9] is: 4500 mmol/kg, sampling time 2 hours.
Setting [10] is: 4500 mmol/kg, sampling time 6 hours.
Setting [11] is: 4500 mmol/kg, sampling time 24 hours.
[12] abbreviates: 10 mg/kg, sampling time 2 hours.
Setting [13] is: 10 mg/kg, sampling time 6 hours.
[14] abbreviates: 10 mg/kg, sampling time 24 hours.
Where [15] appears, read: 60 mg/kg, sampling time 2 hours.
The mark [16] stands for this setting: 60 mg/kg, sampling time 6 hours.
The mark [17] stands for this setting: 60 mg/kg, sampling time 24 hours.
The mark [18] stands for this setting: 2 mg/kg, sampling time 24 hours.
Setting [19] is: 50 mg/kg, sampling time 6 hours.

Experimental for PC3 (BTG2): as §4, §5, §6

In the case of `O=C(O)CCCCCCNC1c2ccccc2CCc2ccccc21` [amineptine], the “classification by support vector machines (identification of compound class)” value in data set [1] is on record as “steatotic compound”.
For the molecule `Nc1ccc(S(=O)(=O)c2cc(Br)nc(N3CCCC3)c2)cc1` [Ro66-0074, 4-(2-Bromo-6-pyrrolidin-1-yl-pyridine-4-sulfonyl)-phenylamine], the “AH-R Affymetrix” value with AH-R [2] (360 min) and in the data set on AH-R [2] (1440 min) was 1.0 in each case. Further, the entries for the “CYP2B2 RT-PCR” value in the data set with CYP2B2 [3] (360 min) and in the data set with CYP2B2 [3] (1440 min) were 8.4 and 1.3, respectively. In addition, the “PC3 (BTG2) Affymetrix” value with PC3 (BTG2) (360 min) worked out at 0.4; in the data set on PC3 (BTG2) (1440 min), 0.6. The “CYP2B2 Affymetrix” value with CYP2B2 [4] (360 min) is reported as -1.2; with CYP2B2 [4] (1440 min), 1.1. In addition, the “expression levels of few marker genes (RT-PCR, Fig. 10)” value in the data set with marker genes [5] is “slight induction”. The “AH-R RT-PCR” value with AH-R [6] (360 min) came to 1.7; with AH-R [6] (1440 min), 1.2.
Turning to `Clc1ccc(Cl)cc1` [1,4-dichlorobenzene], the “PCR Gadd153” value with Gadd153 (sampling time 2 hours) was determined as 1.0 fold induction; in the data set with Gadd153 (sampling time 6 hours), 0.9 fold induction; in the data set with Gadd153 (sampling time 24 hours), 2.4 fold induction. The “PCR PEG3” value with PEG3 (sampling time 2 hours) is given as 0.8 fold induction; in the data set with PEG3 (sampling time 6 hours), 0.7 fold induction; with PEG3 (sampling time 24 hours) it was 4.2 fold induction. Moreover, the “PCR Gadd45” value with Gadd45 (setting [9]) stood at 1.7 fold induction; in the data set with Gadd45 (setting [10]) it was 0.8 fold induction; in the data set with Gadd45 (setting [11]) it was 7.2 fold induction.
Take `Cc1ccc(C(=O)c2cc(O)c(O)c([N+](=O)[O-])c2)cc1` [Tolcapone (Tasmar), Tolcapone]: in the data set with EGR-1 (300 mg/kg administered three times), the “PCR EGR-1” value is 17.6 fold induction. Further, the “induction of EGR1” value with EGR1 (high dose 300 mg/kg) is given as “slight induction”.
Turning to `NN` [Hydrazine], the “induction of genes from the GADD family, namely GADD-45, GADD-153 and PEG-3” value (from here on “induction of genes from the GADD family”) in data set [7] was “induction”. The “PCR Gadd153” value in the data set on Gadd153 (setting [12]) stood at 2.2 fold induction; with Gadd153 (setting [13]), 4.0 fold induction; in the data set with Gadd153 (setting [14]) it was 0.4 fold induction; in the data set with Gadd153 (setting [15]), 1.0 fold induction; in the data set with Gadd153 (setting [16]) it was 0.9 fold induction; with Gadd153 (setting [17]) it was 1.7 fold induction. The “PCR PEG3” value with PEG3 (setting [12]) was 3.4 fold induction; in the data set with PEG3 (setting [13]) it was 6.3 fold induction; with PEG3 (setting [14]), 2.1 fold induction; in the data set with PEG3 (setting [15]) it was 20.4 fold induction; in the data set with PEG3 (setting [16]) it was 3.8 fold induction; with PEG3 (setting [17]) it was 11.9 fold induction. For the same molecule, the “PCR Gadd45” value worked out at 1.1 fold induction with Gadd45 (setting [12]); 9.9 fold induction with Gadd45 (setting [13]); 0.2 fold induction in the data set on Gadd45 (setting [14]); 1.0 fold induction with Gadd45 (setting [15]); 1.8 fold induction in the data set with Gadd45 (setting [16]); 1.0 fold induction in the data set on Gadd45 (setting [17]).
As to `CCN(CC)C(=O)/C(C#N)=C/c1cc(O)c(O)c([N+](=O)[O-])c1` [Entacapone], in the data set on EGR-1 (600 mg/kg administered three times), the “PCR EGR-1” value was 1.0 fold induction.
With “(4-Amino-N-(6-bromo-1 H -indol-4-yl)-benzenesulfonamide [Ro65-7199]”, in the data set on marker genes [8], the “expression levels of few marker genes (RT-PCR, Fig. 10)” value was “larger effect”. The “induction of CYP2B (hepatic protein levels, Western blot)” value in the data set with CYP2B (6 hours after administration) is given as “could not be detected”. The “protein levels of CYP2B (Western blot)” value in the data set on CYP2B (24 hours and 7 days after treatment) was “closely paralleled the amounts of mRNA”.
Regarding `CC(=N)S` [Thioacetamide], the “induction of genes from the GADD family” value in data set [7] is “induction”. The “PCR Gadd153” value in the data set with Gadd153 (2 mg/kg, sampling time 6 hours) amounted to 0.9 fold induction; with Gadd153 (setting [18]), 0.0 fold induction; in the data set with Gadd153 (setting [13]), 1.3 fold induction; with Gadd153 (setting [14]), 0.9 fold induction; in the data set with Gadd153 (setting [19]), 2.5 fold induction. Moreover, the “PCR PEG3” value in the data set on PEG3 (2 mg/kg, sampling time 6 hours) was determined as 2.0 fold induction; with PEG3 (setting [18]), 0.9 fold induction; in the data set with PEG3 (setting [13]) it was 1.9 fold induction; with PEG3 (setting [14]), 0.5 fold induction; with PEG3 (setting [19]), 7.8 fold induction. Further, the “PCR Gadd45” value in the data set with Gadd45 (2 mg/kg, sampling time 6 hours) was 8.1 fold induction; with Gadd45 (setting [18]) it was 0.0 fold induction; with Gadd45 (setting [13]), 2.9 fold induction; with Gadd45 (setting [14]) it was 1.7 fold induction; in the data set on Gadd45 (setting [19]), 27.6 fold induction.
`O=[N+]([O-])c1ccc(O)c([N+](=O)[O-])c1` [Dinitrophenol]: the “PCR EGR-1” value with EGR-1 (10 mg/kg administered three times) came out at 3.4 fold induction; in the data set with EGR-1 (30 mg/kg administered three times), 8.5 fold induction. Further, in the data set on EGR1 (10 and 30 mg/kg), the “induction of EGR1” value is listed as “slight induction”.
With `Clc1ccccc1Cl` [1,2-dichlorobenzene], the “induction of genes from the GADD family” value in [7] is “induction”. For the same molecule, the figures for the “PCR Gadd153” value in the data set with Gadd153 (sampling time 2 hours), with Gadd153 (sampling time 6 hours) and in the data set with Gadd153 (sampling time 24 hours) were 0.9 fold induction, 0.6 fold induction and 27.9 fold induction, respectively. In addition, the figures for the “PCR PEG3” value in the data set with PEG3 (sampling time 2 hours), with PEG3 (sampling time 6 hours) and in the data set with PEG3 (sampling time 24 hours) were 3.9 fold induction, 1.9 fold induction and 54.6 fold induction, respectively. The “PCR Gadd45” value in the data set with Gadd45 (setting [9]) was found to be 2.3 fold induction; with Gadd45 (setting [10]), 4.9 fold induction; with Gadd45 (setting [11]) it was 53.0 fold induction. Besides, the “classification by support vector machines (identification of compound class)” value in data set [1] was “direct acting compound”.
